We go through 20 compounds from patent publication US20070219209A1, “Piperazine Derivatives Of Alkyl Oxindoles” (GYÓGYSZERGYÁR RT., priority 2004, published 2007).

Data set [1] has as its target T1, 5-HT7 receptor (Homo sapiens, UniProt P34969).
T1 construct: expressed in transfected cells
The experiment in a line: 5-HT7 receptor binding experiment. The note with it: human cloned receptors; ligand 3H-LSD 1.0 nM; non-specific clozapine 25 μM. How it is done: For the determination of 5-HT7 receptor binding human cloned receptors were used. The α1 receptor binding was determined from isolated frontal cortex preparation of male Wistar rats weighing 120-200 g. The 5-HT uptake measurements were performed on samples from isolated cortex of male rats. The protein contents of membrane preparations were determined by the method of Lowry (1951).
In the course of 5-HT7 and α1 receptor binding studies the ligands were ^3H-lizergic acid diethyl amide (LSD) (1.0 nM) and ^3H-prazosine (0.3 nM). Clozapine (25 μM) and prazosine (1 μM) were used for the measurement of non-specific bindings. The α1 binding studies were performed according to the methods of Reader and Greengrass (Reader, T. A., Briere, R., Grondin, L.: J. Neural Transm. 68, p. 79 (1987); Greengrass, P., Brenner, R.: Eur. J. Pharmacol. 55, p. 323 (1979)). In the serotonin uptake inhibition studies the ligand was tritiated serotonin, the non-specific ligand was fluoxetine (100 μM). On the test results Ki values were calculated.

Structures can show the parent of a compound that is named as a salt.

For orientation: Ki means a dissociation constant, usually derived from enzyme kinetics or from competition with a known ligand. A higher Ki goes with a looser hold on the target. One may read the melting point as the temperature, or range, at which the solid turns liquid.

T1 sequence (P34969 whole entry): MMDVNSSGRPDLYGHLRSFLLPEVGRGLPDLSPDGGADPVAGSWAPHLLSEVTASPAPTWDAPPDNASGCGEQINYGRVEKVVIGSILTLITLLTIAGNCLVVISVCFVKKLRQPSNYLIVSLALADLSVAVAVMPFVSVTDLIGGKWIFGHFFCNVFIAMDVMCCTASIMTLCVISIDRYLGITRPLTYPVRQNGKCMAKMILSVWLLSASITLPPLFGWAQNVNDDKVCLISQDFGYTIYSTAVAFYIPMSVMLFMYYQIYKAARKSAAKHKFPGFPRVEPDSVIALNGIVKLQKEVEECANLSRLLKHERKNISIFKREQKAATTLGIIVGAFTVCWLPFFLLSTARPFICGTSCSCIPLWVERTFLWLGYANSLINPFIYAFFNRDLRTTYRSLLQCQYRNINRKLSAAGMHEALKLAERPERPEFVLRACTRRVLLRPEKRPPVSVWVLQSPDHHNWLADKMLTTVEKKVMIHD

For `O=C1Nc2ccccc2C1CCCCN1CCN(c2ccc(Cl)c(C(F)(F)F)c2)CC1` (stereo not drawn) [Example 15, 3-{4-[4-(4-Chloro-3-trifluoromethylphenyl)-piperazin-1-yl]-butyl}-1,3-dihydro-2H-indol-2-one monohydrochloride], the Ki in data set [1] was below 100 µM. As for `O=C1Nc2ccc(F)cc2C1CCCCN1CCN(c2ccc(F)cc2)CC1` (stereo not drawn) [Example 16, 5-Fluoro-3-{4-[4-(4-fluorophenyl)-piperazin-1-yl]-butyl}-1,3-dihydro-2H-indol-2-one], the melting point was in the range of 135 to 137 °C. The same compound displayed a Ki in data set [1] below 100 µM. Compound `O=C1Nc2ccc(F)cc2C1CCCCN1CCN(c2ccccc2)CC1` (stereo not drawn) yielded a melting point of 140 to 144 °C. In data set [1], `O=C1Nc2ccc(F)cc2C1CCCCN1CCN(c2cccc(Cl)c2)CC1` (stereo not drawn) [Example 6, 3-{4-[4-(3-Chlorophenyl)-piperazin-1-yl]-butyl}-5-fluoro-1,3-dihydro-2H-indol-2-one monohydrochloride] returned a Ki below 100 µM.

Regarding `O=C1Nc2ccccc2C1CCCCN1CCN(c2cccc(Cl)c2)CC1` (stereo not drawn) [Example 18, 3-{4-[4-(3-Chlorophenyl)-piperazin-1-yl]-butyl}-1,3-dihydro-2H-indol-2-one], the melting point is 112 to 114 °C. The compound also yielded a Ki in data set [1] below 100 µM.

In turn, `O=C1Nc2ccccc2C1CCCCN1CCN(c2ccc(Cl)c(C(F)(F)F)c2)CC1` (stereo not drawn) (as salt: hydrochloride) [Example 15, 3-{4-[4-(4-Chloro-3-trifluoromethylphenyl)-piperazin-1-yl]-butyl}-1,3-dihydro-2H-indol-2-one monohydrochloride] gave a melting point of 123 to 125 °C. The same measure, in the same setting: for `O=C1Nc2ccc(F)cc2C1CCCCN1CCN(c2cccc(Cl)c2)CC1` (stereo not drawn) (as salt: hydrochloride) [Example 6, 3-{4-[4-(3-Chlorophenyl)-piperazin-1-yl]-butyl}-5-fluoro-1,3-dihydro-2H-indol-2-one monohydrochloride] the value was 180 to 184 °C. In data set [1], `O=C1Nc2cc(F)ccc2C1CCCCN1CCN(c2ccc(Cl)cc2)CC1` (stereo not drawn) [Example 8, 3-{4-[4-(4-Chlorophenyl)-piperazin-1-yl]-butyl}-6-fluoro-1,3-dihydro-2H-indol-2-one monohydrochloride] showed a Ki below 100 µM.

In turn, `O=C1Nc2ccccc2C1CCCCN1CCN(c2ccc(Cl)cc2)CC1` (stereo not drawn) [Example 17, 3-{4-[4-(4-Chlorophenyl)-piperazin-1-yl]-butyl}-1,3-dihydro-2H-indol-2-one] yielded a melting point of 136 to 137 °C. The inhibition constant (Ki) in data set [1] is below 100 µM. In data set [1], `O=C1Nc2ccccc2C1CCCCN1CCN(c2ccc(F)c(Cl)c2)CC1` (stereo not drawn) [Example 14, 3-{4-[4-(3-Chloro-4-fluorophenyl)-piperazin-1-yl]-butyl}-1,3-dihydro-2H-indol-2-one monohydrochloride] registered a Ki below 100 µM. With `O=C1Nc2cc(F)ccc2C1CCCCN1CCN(c2ccc(Cl)cc2)CC1` (stereo not drawn) (as salt: hydrochloride) [Example 8, 3-{4-[4-(4-Chlorophenyl)-piperazin-1-yl]-butyl}-6-fluoro-1,3-dihydro-2H-indol-2-one monohydrochloride], the melting point lay in the range of 149 to 151 °C. Turning to `Cc1ccc2c(c1)C(CCCCN1CCN(c3ccc(Cl)cc3)CC1)C(=O)N2` (stereo not drawn) [Example 10, 3-{4-[4-(4-Chlorophenyl)-piperazin-1-yl]-butyl}-5-methyl-1,3-dihydro-2H-indol-2-one], the melting point fell in the range of 159 to 161 °C. Besides, the Ki in data set [1] was below 100 µM.

`O=C1Nc2ccc(F)cc2C1CCCCN1CCN(c2ccc(Cl)cc2)CC1` (stereo not drawn) (as salt: hydrochloride) [Example 7, 3-{4-[4-(4-Chlorophenyl)-piperazin-1-yl]-butyl}-5-fluoro-1,3-dihydro-2H-indol-2-one monohydrochloride] registered a melting point of 193 to 196 °C. Same read-out and setting: for `O=C1Nc2ccc(F)cc2C1CCCCN1CCN(c2ccc(Cl)c(Cl)c2)CC1` (stereo not drawn) [Example 23, 3-{4-[4-(3,4-dichlorophenyl)-piperazine-1-yl]-butyl}-5-fluoro-1,3-dihydro-2H-indol-2-one] the value was 118 to 120 °C.

`Cc1ccc2c(c1)C(CCCCN1CCN(c3cccc(Cl)c3)CC1)C(=O)N2` (stereo not drawn) [Example 9, 3-{4-[4-(3-Chlorophenyl)-piperazin-1-yl]-butyl}-5-methyl-1,3-dihydro-2H-indol-2-one] returned a melting point of 122 to 124 °C. The compound further showed an inhibition constant Ki in data set [1] below 100 µM.

`O=C1Nc2ccccc2C1CCCCN1CCN(c2ccc(F)cc2)CC1` (stereo not drawn) [Example 11, 3-{4-[4-(4-Fluorophenyl)-piperazin-1-yl]-butyl}-1,3-dihydro-2H-indol-2-one]: the melting point is 113 to 115 °C. In addition, the Ki in data set [1] is below 100 µM. Compound `O=C1Nc2ccccc2C1CCCCN1CCN(c2ccccc2)CC1` (stereo not drawn) [Example 24, 3-[4-(4-phenyl-piperazin-1-yl)-butyl]-1,3-dihydro-2H-indol-2-one] returned a melting point of 110 to 113 °C. `O=C1Nc2ccccc2C1CCCCN1CCN(c2ccc(F)c(Cl)c2)CC1` (stereo not drawn) (as salt: hydrochloride) [Example 14, 3-{4-[4-(3-Chloro-4-fluorophenyl)-piperazin-1-yl]-butyl}-1,3-dihydro-2H-indol-2-one monohydrochloride]: the melting point lay in the range of 180 to 183 °C. In the case of `O=C1Nc2ccccc2C1CCCCN1CCN(c2ccc(Cl)c(Cl)c2)CC1` (stereo not drawn) [Example 12, 3-{4-[4-(3,4-Dichlorophenyl)-piperazin-1-yl]-butyl}-1,3-dihydro-2H-indol-2-one], the melting point was 112 to 114 °C. In addition, the Ki in data set [1] is below 100 µM. Compound `O=C1Nc2ccc(F)cc2C1CCCCN1CCN(c2ccc(Cl)cc2)CC1` (stereo not drawn) [Example 7, 3-{4-[4-(4-Chlorophenyl)-piperazin-1-yl]-butyl}-5-fluoro-1,3-dihydro-2H-indol-2-one monohydrochloride] came in with a Ki in data set [1] below 100 µM.
